Experimental data taken from patent publication US6864286B2, “Inhibitors of the EGF-receptor tyrosine kinase and methods for their use” (Parker Hughes Institute, priority 1998, dated 2005).
pIC50: −log10 of the molar value.

Experiments:
MDA-MB-361 cells = assay: In vitro clonogenic assay, MDA-MB-361; type: cell-based, human; details: 24 hour treatment; for inhibition at 0.1 µM / inhibition at 10 µM / inhibition at 100 µM: Homo sapiens
Method: In order to determine the cytotoxic activity of LFM and its analogs against breast cancer cells, cells in alpha-MEM supplemented with 10% (v/v) fetal calf serum were treated with various concentrations of the compounds for 24 hours at 37° C., washed twice in alpha-MEM, and then used in either MTT assays or in vitro invasion assays, as described hereinafter.
After treatment with LFM analogs, cells were resuspended in clonogenic medium consisting of alpha-MEM supplemented with 0.9% methylcellulose, 30% fetal bovine serum, and 50 μM 2-mercaptoethanol. Cells were plated in duplicate Petri dishes at 100,000 cells/mL/dish and cultured in a humidified 5% CO2 incubator for 7 days. Cancer cell colonies were enumerated on a grid using an inverted phase microscope of high optical resolution (Uckun F. M., et al. Clin. Cancer Res. 1998, 4, 901-912; and Kuo). Results were expressed as % inhibition of clonogenic cells at a particular concentration of the test agent using the formula: % Inhibition=(1-Mean # of colonies [Test]/Mean # of colonies [Control])×100. Furthermore, the dose survival curves were constructed using the percent control survival (=Mean # of colonies[Test]/Mean # of colonies [Control]×100) results for each drug concentration as the data points and the IC50 values were calculated. The IC50 values were determined using an Prism Version II Inplot program (Graphpad Software, Inc., San Diego, Calif.).

[1] = target: T1, EGFR tyrosine kinase in MDA-MB-231 cells (Homo sapiens, UniProt P00533); assay: Cellular EGFR autophosphorylation, anti-phosphotyrosine Western blot; type: cell-based; details: 24 hour exposure
T1 construct: anti-EGFR immunoprecipitates from lysates of MDA-MB-231 human breast cancer cells; endogenous in cells; host or cells: MDA-MB-231 (ATCC HTB-26)
T1 sequence (P00533 25-1210): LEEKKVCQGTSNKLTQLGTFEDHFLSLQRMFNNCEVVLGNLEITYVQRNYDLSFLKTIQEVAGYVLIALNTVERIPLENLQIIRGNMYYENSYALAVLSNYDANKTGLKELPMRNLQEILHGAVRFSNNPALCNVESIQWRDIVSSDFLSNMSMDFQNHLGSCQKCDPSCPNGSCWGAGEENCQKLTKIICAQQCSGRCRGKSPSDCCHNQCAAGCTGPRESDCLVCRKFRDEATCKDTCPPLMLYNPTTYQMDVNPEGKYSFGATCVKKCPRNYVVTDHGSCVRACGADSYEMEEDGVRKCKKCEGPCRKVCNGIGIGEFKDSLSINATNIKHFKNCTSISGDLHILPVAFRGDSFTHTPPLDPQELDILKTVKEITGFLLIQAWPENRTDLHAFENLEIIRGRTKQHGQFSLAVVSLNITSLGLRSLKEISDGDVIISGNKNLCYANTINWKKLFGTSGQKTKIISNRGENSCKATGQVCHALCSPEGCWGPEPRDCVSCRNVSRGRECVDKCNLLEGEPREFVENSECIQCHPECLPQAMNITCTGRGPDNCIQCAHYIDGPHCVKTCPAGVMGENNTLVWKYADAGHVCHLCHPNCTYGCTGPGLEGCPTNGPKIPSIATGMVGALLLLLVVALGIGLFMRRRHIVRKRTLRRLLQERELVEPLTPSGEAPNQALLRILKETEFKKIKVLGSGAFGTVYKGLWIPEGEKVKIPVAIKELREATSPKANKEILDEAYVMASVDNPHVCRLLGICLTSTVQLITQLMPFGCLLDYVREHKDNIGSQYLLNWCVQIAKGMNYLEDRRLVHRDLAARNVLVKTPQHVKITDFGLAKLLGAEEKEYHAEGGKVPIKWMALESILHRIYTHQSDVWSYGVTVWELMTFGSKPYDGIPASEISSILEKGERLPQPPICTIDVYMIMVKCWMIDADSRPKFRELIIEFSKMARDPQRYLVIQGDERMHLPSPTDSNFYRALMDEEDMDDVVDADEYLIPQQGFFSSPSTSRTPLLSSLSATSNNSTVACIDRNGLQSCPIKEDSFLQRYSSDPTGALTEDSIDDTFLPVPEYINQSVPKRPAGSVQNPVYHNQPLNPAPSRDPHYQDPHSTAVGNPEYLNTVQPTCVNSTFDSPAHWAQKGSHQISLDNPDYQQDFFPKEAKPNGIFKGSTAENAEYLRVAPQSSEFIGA
Method: For EGFR immune complex kinase assays, 24-hours after treatment with leflunomide analogs, MDA-MB-231 breast cancer cells were stimulated with 20 ng/mL EGF for 5 minutes, lysed in 1% Nonidet-P-40 buffer, and cell lysates were immunoprecipitated with an anti-EGFR antibody reactive with the sequence Ala^351-Asp^364 of the human EGFR (Upstate Biotechnology Inc. [UBI] Catalog # 05-104) (Uckun, F. M., et al. Clin. Can. Res. 1998, 4, 901). EGFR immune complexes were examined for tyrosine phosphorylation by Western blot analysis, as described by Uckun, F. M., et al. Clin. Can. Res. 1998, 4, 901. All anti-phosphotyrosine Western blots were subjected to densitometric scanning using the automated AMBIS system (Automated Microbiology System, Inc., San Diego, Calif.) and for each time point a % inhibition value was determined by comparing the density ratios of the tyrosine phosphorylated EGFR protein bands to those of the baseline sample and using the formula: % Inhibition=100−100×[Density of tyrosine phosphorylated EGFR band]test sample/[Density of tyrosine phosphorylated EGFR band]baseline control sample. The IC50 values were determined using an Inplot program (Graphpad Software, Inc., San Diego, Calif.).
The effects of LFM and LFM analogs on the enzymatic activity of the EGFR tyrosine kinase in breast cancer cells were also examined. […]

JAK3 = target: T2, JAK3 (Homo sapiens, UniProt P52333); assay: Cell-free JAK3 immune complex kinase assay; type: biochemical; details: for effect on enzymatic activity of JAK3: at concentrations as high as 350 μM
T2 construct: made in house; host or cells: Sf21 insect cells (baculovirus)
T2 sequence (P52333 1-1124): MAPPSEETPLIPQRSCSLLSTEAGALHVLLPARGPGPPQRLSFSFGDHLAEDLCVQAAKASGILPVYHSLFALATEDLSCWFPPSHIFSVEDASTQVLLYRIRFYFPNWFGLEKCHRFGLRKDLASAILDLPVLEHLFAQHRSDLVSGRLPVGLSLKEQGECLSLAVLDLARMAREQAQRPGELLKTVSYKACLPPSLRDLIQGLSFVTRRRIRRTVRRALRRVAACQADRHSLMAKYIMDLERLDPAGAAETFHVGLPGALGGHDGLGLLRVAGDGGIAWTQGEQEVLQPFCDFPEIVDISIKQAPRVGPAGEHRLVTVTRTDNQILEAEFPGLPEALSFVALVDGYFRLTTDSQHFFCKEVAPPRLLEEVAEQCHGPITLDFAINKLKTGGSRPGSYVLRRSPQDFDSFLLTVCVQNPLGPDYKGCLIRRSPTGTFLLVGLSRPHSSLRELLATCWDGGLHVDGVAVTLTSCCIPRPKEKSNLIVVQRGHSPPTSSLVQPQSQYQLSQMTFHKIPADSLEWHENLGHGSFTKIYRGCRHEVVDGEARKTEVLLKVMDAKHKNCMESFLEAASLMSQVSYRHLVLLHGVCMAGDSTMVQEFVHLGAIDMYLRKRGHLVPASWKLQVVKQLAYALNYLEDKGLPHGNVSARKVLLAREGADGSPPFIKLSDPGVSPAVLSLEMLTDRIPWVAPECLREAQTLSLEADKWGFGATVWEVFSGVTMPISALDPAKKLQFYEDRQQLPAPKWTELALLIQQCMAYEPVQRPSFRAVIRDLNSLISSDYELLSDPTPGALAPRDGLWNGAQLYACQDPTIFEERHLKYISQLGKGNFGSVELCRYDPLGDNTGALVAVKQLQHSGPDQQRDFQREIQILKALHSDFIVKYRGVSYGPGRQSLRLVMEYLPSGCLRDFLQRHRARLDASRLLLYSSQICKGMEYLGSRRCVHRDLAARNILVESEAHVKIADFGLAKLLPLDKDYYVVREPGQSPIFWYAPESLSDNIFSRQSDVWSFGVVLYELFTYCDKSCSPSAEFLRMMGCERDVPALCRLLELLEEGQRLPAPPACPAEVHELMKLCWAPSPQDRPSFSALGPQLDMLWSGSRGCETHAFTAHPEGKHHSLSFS
Method: Immunoprecipitations, immune-complex protein kinase assays, and immunoblotting using the ECL chemiluminescence detection system (Amersham Life Sciences) were conducted as described previously (Vassilev, A., et al. J. Biol. Chem. 1998, in press; Goodman, P. A., et al. J. Biol. Chem. 1998, 273, 17742; Mahajan, S., et al. Mol. Cell. Biol. 1995, 15, 5304; Uckun, F. M., et al. Science 1996, 22, 1096).

SMILES | inhibition at 0.1 µM (MDA-MB-361 cells; MDA-MB-361, 0.1 μM) [%] | inhibition at 10 µM (MDA-MB-361 cells; MDA-MB-361, 10 μM) [%] | inhibition at 100 µM (MDA-MB-361 cells; MDA-MB-361, 100 μM) [%] | Tumor Cell Colonies/10^5 Cells (MDA-MB-361 cells; MDA-MB-361, 0.1 μM) | Tumor Cell Colonies/10^5 Cells (MDA-MB-361 cells; MDA-MB-361, 10 μM) | Tumor Cell Colonies/10^5 Cells (MDA-MB-361 cells; MDA-MB-361, 100 μM) | tyrosine phosphorylation of the EGFR after EGF stimulation [1] | effect on enzymatic activity of JAK3 (JAK3) | pIC50 (JAK3; JAK3, cell-free, read-out: Inhibition IC50)
CC(O)=C(C#N)C(=O)Nc1ccc(C(F)(F)F)cc1 [LFM, α-Cyano-β-hydroxy-β-methyl-N-[4-(trifluoromethyl)phenyl]-propenamide, reference compound] | 27.3 | 51.5 | 82.3 | 803 | 535 | 196 | to a lesser extent | did not affect the enzymatic activity | –
C/C(O)=C(\C#N)C(=O)Nc1ccc(OC(F)(F)F)cc1 [LFM-A12, α-Cyano-β-hydroxy-β-methyl-N-[4-(trifluoromethoxy)phenyl]-propenamide] | 32.4 | 60.2 | 87.3 | 746 | 440 | 140 | decreased tyrosine phosphorylation of the EGFR | did not affect the enzymatic activity | < 3.46
